Assays:
Type in all cases: functional, cell-based
Conditions in all cases: Homo sapiens
[1] = test system: A549; test: Inhibitory activity against growth of cultured A-549 cell line
[2] = test system: SNU-638; test: inhibitory activity against growth of cultured SNU-638 cell line
[3] = test system: Col2; test: inhibitory activity against growth of cultured Col2 cell line

Q: CCOC(=O)c1c2c(n(C)c1N)C(=O)c1ccccc1C2=O was tested. Which IC50 [1] did it give?
A: 630 nM

Q: And the IC50 [2]?
A: 1680 nM

Q: What about the IC50 [3] of the same compound?
A: 340 nM
